Measured values reported in patent US6673937B2, “Syntheses and methods of use of new antimitotic agents” (The University of Pittsburgh, priority 2000, dated 2004).
Where two headings read alike, the source gives them in different places.

Legend:
60 cell line panel = details: read-out: average GI 50; cited from earlier work
Trx-1/TrxR [1] = target: T1, Trx-1/TrxR (Homo sapiens, UniProt P10599+Q16881); details: read-out: IC 50 as Trx-1/TrxR inhibitor; cited from earlier work
T1 sequence (P10599 1-105): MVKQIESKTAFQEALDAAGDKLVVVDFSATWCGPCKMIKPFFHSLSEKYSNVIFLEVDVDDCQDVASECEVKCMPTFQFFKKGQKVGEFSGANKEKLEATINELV
T1 sequence (Q16881 151-649 limits assumed): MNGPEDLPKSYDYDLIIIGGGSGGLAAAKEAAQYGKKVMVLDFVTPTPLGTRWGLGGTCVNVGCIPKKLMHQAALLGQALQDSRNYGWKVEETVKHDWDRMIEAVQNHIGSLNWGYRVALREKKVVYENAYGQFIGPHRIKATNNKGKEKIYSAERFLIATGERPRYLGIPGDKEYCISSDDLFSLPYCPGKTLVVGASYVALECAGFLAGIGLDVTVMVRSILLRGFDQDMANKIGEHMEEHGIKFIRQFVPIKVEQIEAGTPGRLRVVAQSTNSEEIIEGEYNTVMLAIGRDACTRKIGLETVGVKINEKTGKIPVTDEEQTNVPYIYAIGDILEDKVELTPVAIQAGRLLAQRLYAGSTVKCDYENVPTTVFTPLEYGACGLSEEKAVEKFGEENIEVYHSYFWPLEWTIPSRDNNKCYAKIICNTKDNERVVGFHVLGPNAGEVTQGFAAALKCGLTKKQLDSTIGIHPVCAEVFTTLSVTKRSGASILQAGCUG

recombinant Cdc25 = test: In vitro inhibition of recombinant Cdc25; type: biochemical; details: 30 μM, data not shown
PTPIB = target: T2, PTPIB (Homo sapiens, UniProt P18031); test: In vitro inhibition of PTPIB; type: biochemical; details: 30 μM, data not shown
T2 sequence (P18031 1-435): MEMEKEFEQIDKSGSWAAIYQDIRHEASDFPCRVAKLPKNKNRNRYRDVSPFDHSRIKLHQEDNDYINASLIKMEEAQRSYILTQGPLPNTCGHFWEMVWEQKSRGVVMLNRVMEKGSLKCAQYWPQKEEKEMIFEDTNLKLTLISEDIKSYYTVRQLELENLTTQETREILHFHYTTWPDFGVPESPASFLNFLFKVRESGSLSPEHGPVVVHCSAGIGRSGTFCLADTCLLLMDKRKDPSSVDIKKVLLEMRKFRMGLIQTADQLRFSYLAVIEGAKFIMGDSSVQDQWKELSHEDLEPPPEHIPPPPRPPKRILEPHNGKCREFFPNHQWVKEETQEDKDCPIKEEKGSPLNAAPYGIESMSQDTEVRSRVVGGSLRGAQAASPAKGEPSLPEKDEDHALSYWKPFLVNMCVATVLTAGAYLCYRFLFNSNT

Trx-1/TrxR [2] = target: T3, Trx-1/TrxR (Homo sapiens, UniProt P10599+Q16881); test: Trx-1/TrxR-dependent insulin reducing assay; type: biochemical; details: calculated from 5 concentrations (0.1 to 50 μM)
T3 construct: Thioredoxin reductase was purified from human placenta as previously described; made in house
T3 sequence (P10599 1-105): T1 sequence (P10599 1-105)
T3 sequence (Q16881 1-499 isoform Q16881-5): T1 sequence (Q16881 151-649 limits assumed)
Procedure: Thioredoxin reductase was purified from human placenta as previously described (Oblong, J.E.; Gasdaska, P.Y.; Sherrill, K.; Powis,G. Biochemistry 1993, 32, 7271) and recombinant human Trx-1 was prepared as previously described (Gasdaska, P.Y.; Oblong, J.E.; Cotgreave, I.A.; Powis,G. Biochem.Biophys.Acta 1994 ,1218 ,292). TrxR and Trx-1/TrxR activities were measured spectrophotometrically using previously published microtiter plate colorimetric assays, based on the increase in absorbance at 405 nm which occurs as dithionitrobenzoic acid (DTNB) is reduced by the enzyme-mediated transfer of reducing equivalents from NADPH (Gasdaska et al., Biochem.Biophys.Acta 1994 ,1218,292). Trx-1/TrxR-dependent insulin reducing activity was measured in an incubation with a final volume of 60 μL containing 100 mM HEPES buffer, pH 7.2,5 mM EDTA (HE buffer),1 mM NADPH, […],0.8 μM Trx-1 and 2.5 mg/mL bovine insulin. Incubations were for 30 min at 37 ° C. in flat-bottom 96-well microtiter plates. The reaction was stopped by the addition of 100 μL of 6 M guanidine-HC1, 50 mM Tris, pH 8.0, and 10 mM DTNB, and the absorbance measured to 405 nm. TrxR activity was measured in a final incubation volume of 60 μL containing HE buffer, 10 mM DTNB, 1.0 μM TrxR and 1 mM NADPH. Compounds were diluted in HE buffer and added to the wells as 20 μL aliquots, and TrxR was then added,also as 20 μL aliquots in HE buffer. To start the reaction NADPH and DTNB were added as a 20 μL aliquot in HE buffer and the plate was moved to the plate reader which had been preheated to 37 ° C. The optical density at 405 nm was measured every 10 s and initial reaction rates were measured.

VHR = VHR (Homo sapiens, UniProt P51452); test: In vitro inhibition of VHR; type: biochemical; details: 30 μM, data not shown
Chain of VHR (P51452 whole entry, species assumed): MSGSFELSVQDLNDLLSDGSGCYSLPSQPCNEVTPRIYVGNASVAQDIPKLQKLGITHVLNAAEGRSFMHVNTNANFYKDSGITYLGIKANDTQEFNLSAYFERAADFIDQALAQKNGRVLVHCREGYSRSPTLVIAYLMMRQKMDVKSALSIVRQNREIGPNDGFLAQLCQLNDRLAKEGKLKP

[3] = system: mouse embryonic fibroblasts transformed with SV40 large T antigen; test: Proliferation of SV40 transformed mouse embryonic fibroblasts; type: cell-based; details: 10 μM
Procedure: Two compounds, 24 referred to herein as SR-4 and 27 referred to herein as SR-7, were examined in greater detail as to their effects on biological activity. The proliferation of MCF-7, MDA-MB-231 and SV40 transformed mouse embryonic fibroblasts was measured by a previously described colorimetric assay (Wipf P, Jung J-K, Rodriguez S, Lazo JS Synthesis and biological evaluation of Deoxypreussomerin A and Palmarumycin CP 1 and related naphthoquinone spiroketals. Tetrahedron 57:283-296, 2001 and Vogt A, Rice RL, Settineri CE, Yokokawa F, Yokokawa S, Wipf P and Lazo JS (1998) Disruption of insulin-like growth factor-I signaling and down-regulation of Cdc2 by SC-ααδ9, a novel small molecule antisignaling agent identified in a targeted array library. J Pharmacol Exptl Therap 287:806-813.). Briefly, the inventors seeded 4,000-6,000 cells per well in microtiter plates. Cells were allowed to attach overnight and treated with vehicle or compounds for 72 h, after which the medium was replaced with serum free medium containing 0.1% 3-[4,5-dimethylthiazol-2-yl]-2,5-diphenyl tetrazolium bromide. Plates were incubated for 3 hours in the dark and total cell number was determined by spectrophotometrically at 540 nm as previously described (Vogt A, Rice RL, Settineri CE, Yokokawa F, Yokokawa S, Wipf P and Lazo JS (1998) Disruption of insulin-like growth factor-1 signaling and down-regulation of Cdc2 by SC-ααδ9, a novel small molecule antisignaling agent identified in a targeted array library. J Pharmacol Exptl Therap 287:806-813.). […] Cells were maintained in RPMI 1640 medium containing 10% fetal bovine serum and the paclitaxel-resistant cells also contained 17 nM paclitaxel and 10 μM verapamil. […] The number of cells was determined spectrophotometrically at 490 nm minus absorbance at 630 nm after exposure to 3-(4,5-dimethylthiazol-2-yl)-5-(3-carboxymethoxyphenyl)-2-(4-sulfophenyl)-2H-tetrazolium and N-methyldibenzopyurazine methyl sulfate. […]

MDA-MB-231 cells = test: Antiproliferative assay, MDA-MB-231 cells; type: cell-based, human
Source text: MDA-MB-231 cells, which were also derived from an adenocarcinoma of the breast, are less differentiated than the MCF-7 cells and fail to express functional p53 or estrogen receptors. This class of tumor cells contains important targets for new therapies, because loss of estrogen receptor expression is associated with poor patient prognosis. (Osborne, C. K. Breast Cane. Res. Treatm. 1998, 51, 227).
The inventors extrapolated to determine the IC50 for compounds with little cytotoxicity at 30,μM, the highest concentration tested. […] The enhanced sensitivity of MCF-7 to these compounds may be due to the expression of p53 in these cells.
Two compounds, 24 referred to herein as SR-4 and 27 referred to herein as SR-7, were examined in greater detail as to their effects on biological activity. The proliferation of MCF-7, MDA-MB-231 and SV40 transformed mouse embryonic fibroblasts was measured by a previously described colorimetric assay (Wipf P, Jung J-K, Rodriguez S, Lazo JS Synthesis and biological evaluation of Deoxypreussomerin A and Palmarumycin CP 1 and related naphthoquinone spiroketals. Tetrahedron 57:283-296, 2001 and Vogt A, Rice RL, Settineri CE, Yokokawa F, Yokokawa S, Wipf P and Lazo JS (1998) Disruption of insulin-like growth factor-I signaling and down-regulation of Cdc2 by SC-ααδ9, a novel small molecule antisignaling agent identified in a targeted array library. J Pharmacol Exptl Therap 287:806-813.). Briefly, the inventors seeded 4,000-6,000 cells per well in microtiter plates. Cells were allowed to attach overnight and treated with vehicle or compounds for 72 h, after which the medium was replaced with serum free medium containing 0.1% 3-[4,5-dimethylthiazol-2-yl]-2,5-diphenyl tetrazolium bromide. Plates were incubated for 3 hours in the dark and total cell number was determined by spectrophotometrically at 540 nm as previously described (Vogt A, Rice RL, Settineri CE, Yokokawa F, Yokokawa S, Wipf P and Lazo JS (1998) Disruption of insulin-like growth factor-1 signaling and down-regulation of Cdc2 by SC-ααδ9, a novel small molecule antisignaling agent identified in a targeted array library. J Pharmacol Exptl Therap 287:806-813.). […] Cells were maintained in RPMI 1640 medium containing 10% fetal bovine serum and the paclitaxel-resistant cells also contained 17 nM paclitaxel and 10 μM verapamil. Cells were plated (2,000/well) in 96-well plates and allowed to attach and grow for 72 hours (paclitaxel and verapamil were removed from resistant cell medium two weeks prior to this plating). They were then treated with 0.5% DMSO vehicle control or 0.08-10 μM compound. The number of cells was determined spectrophotometrically at 490 nm minus absorbance at 630 nm after exposure to 3-(4,5-dimethylthiazol-2-yl)-5-(3-carboxymethoxyphenyl)-2-(4-sulfophenyl)-2H-tetrazolium and N-methyldibenzopyurazine methyl sulfate.
Because of the potential importance of the tumor suppressor gene p53 and the estrogen receptor in controlling the cellular response to cytotoxic agents, the inventors also examined the sensitivity of MDA-MB-231 cells, which lack functional p53 and estrogen receptors. […] As might be expected, these p53 and estrogen receptor deficient cells were generally less sensitive to both natural products and analogs when compared to MCF-7 cells.

[4] = target: thioredoxin reductases (TrxR); details: read-out: K; (thioredoxin reductase inhibition); cited from earlier work
garden cress = details: cited from earlier work

C[C@H]1CO[C@H]2C3=C(C(=O)C=CC3=O)[C@@H]3OC(=O)[C@H]4CC[C@@H]5[C@H]1CC[C@@]52[C@@H]43 [NSC401005]
GI50 (60 cell line panel): 21.5 µM
IC50 (Trx-1/TrxR [1]): 0.17 µM

CC/C=C/CCOc1cccc2c1C(=O)C=CC21Oc2cccc3cccc(c23)O1 [SR-4, (E)-8-(hex-3-enyloxy)-1-oxo-1,4-dihydronaphthalene-4-spiro-2′-naphto [1″,8″-de][1′,3′] dioxin]
inhibition of recombinant Cdc25 activity (recombinant Cdc25): no inhibition
inhibition of PTPIB activity (PTPIB): no inhibition
IC50 (Trx-1/TrxR [2]): > 50 µM
inhibition of VHR activity (VHR): no inhibition
growth inhibition at highest concentration tested [3]: no significant inhibition
enhanced sensitivity of MDA-MB-231 cells compared to MCF-7 cells (MDA-MB-231 cells): five fold enhanced sensitivity
sensitivity of MDA-MB-231 cells, in words (MDA-MB-231 cells; 72 hours, FIG. 23 Panel B): less active
IC50 (MDA-MB-231 cells; Homo sapiens, MDA-MB-231, 72 hours, read-out: MDA-MB-231 50% cell growth inhibition): 9.2 µM

CC(=O)OC[C@H]1O[C@@H]([S-])[C@H](OC(C)=O)[C@@H](OC(C)=O)[C@@H]1OC(C)=O.CCP(CC)CC.[Au+] [auranofin]
Ki [4]: 0.004 µM

O=C1C=CC(=O)[C@@]23O[C@@]12C(=O)C(Cl)=CC31Oc2cccc3cccc(c23)O1 [palmarumycin C4]
germination and growth of garden cress (garden cress): completely inhibited germination and growth

O=C1C=CC(=O)C23OC12C(=O)C1OC1C31Oc2cccc3cccc(c23)O1 (stereo not shown) [palmarumycin C9]
germination and growth of garden cress (garden cress): completely inhibited germination and growth
